Assay results from PubChem BioAssay AID1963979 (Molecular Pharmacology Branch, DTP, NCI, 2024).

System: 361931-004-R-J1-PDC multicell spheroid viability
Assay: Anticancer human tumor 361931-004-R-J1-PDC patient-derived colon adenocarcinoma cell line growth inhibition [PI3K]
Conditions: for viability, T/C: stronger effect = lower value
Outline: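 Three cell types, namely tumor cells, endothelial cells and mesenchymal stem cells, formed each spheroid. Combinations with four PI3K inhibitors were screened at clinically achievable concentrations decreasing by half-log, and spheroid viability was recorded.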

[1] = curve of first compound, second compound 0.00316 µM
[2] = curve of first compound, second compound 0.01 µM
[3] = curve of first compound, second compound 0.0316 µM
[4] = curve of first compound, second compound 0.1 µM
[5] = curve of first compound, second compound 0.316 µM
[6] = curve of first compound, second compound 1 µM
[7] = second compound 0.00316 µM, first compound 0.0316 µM
[8] = second compound 0.00316 µM, first compound 0.1 µM
[9] = second compound 0.01 µM, first compound 0.0316 µM
[10] = second compound 0.01 µM, first compound 0.1 µM
[11] = second compound 0.0316 µM, first compound 0.0316 µM
[12] = second compound 0.0316 µM, first compound 0.1 µM
[13] = second compound 0.0316 µM, first compound 0.316 µM
[14] = second compound 0.0316 µM, first compound 1 µM
[15] = second compound 0.0316 µM, first compound 3.16 µM
[16] = second compound 0.0316 µM, first compound 10 µM
[17] = second compound 0.1 µM, first compound 0.0316 µM
[18] = second compound 0.1 µM, first compound 0.1 µM
[19] = second compound 0.1 µM, first compound 0.316 µM
[20] = second compound 0.1 µM, first compound 1 µM
[21] = second compound 0.1 µM, first compound 3.16 µM
[22] = second compound 0.1 µM, first compound 10 µM
[23] = second compound 0.316 µM, first compound 0.0316 µM
[24] = second compound 0.316 µM, first compound 0.1 µM
[25] = second compound 0.316 µM, first compound 0.316 µM
[26] = second compound 0.316 µM, first compound 1 µM
[27] = second compound 0.316 µM, first compound 3.16 µM
[28] = second compound 0.316 µM, first compound 10 µM
[29] = second compound 1 µM, first compound 0.0316 µM
[30] = second compound 1 µM, first compound 0.1 µM
[31] = second compound 1 µM, first compound 0.316 µM
[32] = second compound 1 µM, first compound 1 µM
[33] = second compound 1 µM, first compound 3.16 µM
[34] = second compound 1 µM, first compound 10 µM
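Also: spheroids exposed to agents for seven days before readout.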

In the case of C[C@@H](NC(=O)c1ncnc(N)c1Cl)c1ncc(C(=O)Nc2cc(C(F)(F)F)c(Cl)cn2)s1 + COc1c(OCCCN2CCOCC2)ccc2c3n(c(=NC(=O)c4cnc(N)nc4)nc12)CCN3, the IC50 [1] is reported as > 10 µM, the IC50 [2] is reported as > 10 µM and the IC50 [3] is reported as > 10 µM. For the same compound, the IC50 [4] was 5.01 µM, the IC50 [5] was 0.213 µM and the IC50 [6] was < 0.0316 µM. The viability, T/C [7] was 108%, the viability, T/C [8] was 101% and the viability, T/C (second compound 0.00316 µM, first compound 0.316 µM) was 108%. For the same compound, the viability, T/C (second compound 0.00316 µM, first compound 1 µM) was 102%, the viability, T/C (second compound 0.00316 µM, first compound 3.16 µM) was 109% and the viability, T/C (second compound 0.00316 µM, first compound 10 µM) was 89.2%. The viability, T/C [9] was 110%, the viability, T/C [10] was 99.9% and the viability, T/C (second compound 0.01 µM, first compound 0.316 µM) was 105%. For the same compound, the viability, T/C (second compound 0.01 µM, first compound 1 µM) was 98%, the viability, T/C (second compound 0.01 µM, first compound 3.16 µM) was 98.4% and the viability, T/C (second compound 0.01 µM, first compound 10 µM) was 89%. The viability, T/C [11] was 98.6%, the viability, T/C [12] was 100% and the viability, T/C [13] was 96.6%. For the same compound, the viability, T/C [14] was 87.7%, the viability, T/C [15] was 89.2% and the viability, T/C [16] was 71.2%. For the same compound, the viability, T/C [17] was 85.9%, the viability, T/C [18] was 86.1% and the viability, T/C [19] was 91.1%. The viability, T/C [20] was 71.3%, the viability, T/C [21] was 64.5% and the viability, T/C [22] was 31%. The viability, T/C [23] was 58%, the viability, T/C [24] was 54.3% and the viability, T/C [25] was 46.5%. For the same compound, the viability, T/C [26] was 39.9%, the viability, T/C [27] was 25.7% and the viability, T/C [28] was 7.73%. For the same compound, the viability, T/C [29] was 26.1%, the viability, T/C [30] was 25.8% and the viability, T/C [31] was 17.7%. The viability, T/C [32] was 11.8%, the viability, T/C [33] was 8.36% and the viability, T/C [34] was 1.75%.

For Cn1ncnc1[C@H]1c2n[nH]c(=O)c3cc(F)cc(c23)N[C@@H]1c1ccc(F)cc1 + CC(Nc1ccc2c(c1)OCCn1cc(N3C(=O)OCC3C(F)F)nc1-2)C(N)=O, the IC50 [1] was > 0.1 µM, the IC50 [2] was > 0.1 µM and the IC50 [3] was > 0.1 µM. For the same compound, the IC50 [4] was > 0.1 µM, the IC50 [5] was > 0.1 µM and the IC50 [6] was > 0.1 µM. For the same compound, the viability, T/C (second compound 0.00316 µM, first compound 0.000316 µM) was 95.9%, the viability, T/C (second compound 0.00316 µM, first compound 0.001 µM) was 96.1% and the viability, T/C (second compound 0.00316 µM, first compound 0.00316 µM) was 89.4%. For the same compound, the viability, T/C (second compound 0.00316 µM, first compound 0.01 µM) was 88.8%, the viability, T/C [7] was 95.6% and the viability, T/C [8] was 81.9%. For the same compound, the viability, T/C (second compound 0.01 µM, first compound 0.000316 µM) was 99.7%, the viability, T/C (second compound 0.01 µM, first compound 0.001 µM) was 98.7% and the viability, T/C (second compound 0.01 µM, first compound 0.00316 µM) was 94.6%. It also gave a viability, T/C (second compound 0.01 µM, first compound 0.01 µM) of 94.2%, a viability, T/C [9] of 89.8% and a viability, T/C [10] of 91.1%. It also gave a viability, T/C (second compound 0.0316 µM, first compound 0.000316 µM) of 97.8%, a viability, T/C (second compound 0.0316 µM, first compound 0.001 µM) of 100% and a viability, T/C (second compound 0.0316 µM, first compound 0.00316 µM) of 95.4%. For the same compound, the viability, T/C (second compound 0.0316 µM, first compound 0.01 µM) was 94.3%, the viability, T/C [11] was 98% and the viability, T/C [12] was 93.6%. It also gave a viability, T/C (second compound 0.1 µM, first compound 0.000316 µM) of 101%, a viability, T/C (second compound 0.1 µM, first compound 0.001 µM) of 77.5% and a viability, T/C (second compound 0.1 µM, first compound 0.00316 µM) of 93.7%. The viability, T/C (second compound 0.1 µM, first compound 0.01 µM) was 86.2%, the viability, T/C [17] was 82% and the viability, T/C [18] was 67.1%. For the same compound, the viability, T/C (second compound 0.316 µM, first compound 0.000316 µM) was 89.3%, the viability, T/C (second compound 0.316 µM, first compound 0.001 µM) was 94.8% and the viability, T/C (second compound 0.316 µM, first compound 0.00316 µM) was 86.2%. For the same compound, the viability, T/C (second compound 0.316 µM, first compound 0.01 µM) was 85.4%, the viability, T/C [23] was 77.5% and the viability, T/C [24] was 76.2%. For the same compound, the viability, T/C (second compound 1 µM, first compound 0.000316 µM) was 85.9%, the viability, T/C (second compound 1 µM, first compound 0.001 µM) was 77.4% and the viability, T/C (second compound 1 µM, first compound 0.00316 µM) was 88.2%. The viability, T/C (second compound 1 µM, first compound 0.01 µM) was 69.7%, the viability, T/C [29] was 70.6% and the viability, T/C [30] was 64.4%.

CC(Cn1ccc(-c2ccc(C#N)c(Cl)c2)n1)NC(=O)c1cc(C(C)O)[nH]n1 (stereo not drawn) was tested, and the viability, T/C (compound 0.0316 µM) was 104% [middle of 4 runs], the viability, T/C (compound 0.1 µM) was 97.2% [middle of 4 runs] and the viability, T/C (compound 0.316 µM) was 105% [middle of 4 runs]. The viability, T/C (compound 1 µM) was 104% [middle of 4 runs], the viability, T/C (compound 3.16 µM) was 102% [middle of 4 runs] and the viability, T/C (compound 10 µM) was 106% [middle of 4 runs]. The IC50 (curve of compound) was > 10 µM.

Compound Cn1ncc(Cl)c1-c1cc(C(=O)NC(CN)Cc2cccc(F)c2)sc1Cl (stereo not drawn) + Cc1nc(NC(=O)N2CCCC2C(N)=O)sc1-c1ccnc(C(C)(C)C(F)(F)F)c1 has an IC50 [3] of 1.32 µM, an IC50 [4] of 0.922 µM and an IC50 [5] of 0.793 µM. For the same compound, the IC50 [6] was 0.715 µM, the IC50 (curve of first compound, second compound 3.16 µM) was 0.628 µM and the IC50 (curve of first compound, second compound 10 µM) was 0.411 µM. For the same compound, the viability, T/C [11] was 98.5%, the viability, T/C [12] was 95% and the viability, T/C [13] was 83.4%. For the same compound, the viability, T/C [14] was 53.4%, the viability, T/C [15] was 34.3% and the viability, T/C [16] was 19.7%. For the same compound, the viability, T/C [17] was 96.3%, the viability, T/C [18] was 95.3% and the viability, T/C [19] was 71.8%. For the same compound, the viability, T/C [20] was 48.8%, the viability, T/C [21] was 29.8% and the viability, T/C [22] was 20.5%. It also gave a viability, T/C [23] of 100%, a viability, T/C [24] of 87.5% and a viability, T/C [25] of 77.2%. The viability, T/C [26] was 40%, the viability, T/C [27] was 28% and the viability, T/C [28] was 14.5%. It also gave a viability, T/C [29] of 89.8%, a viability, T/C [30] of 93.7% and a viability, T/C [31] of 72.3%. The viability, T/C [32] was 39.1%, the viability, T/C [33] was 28.8% and the viability, T/C [34] was 16%. It also gave a viability, T/C (second compound 3.16 µM, first compound 0.0316 µM) of 77.4%, a viability, T/C (second compound 3.16 µM, first compound 0.1 µM) of 87.1% and a viability, T/C (second compound 3.16 µM, first compound 0.316 µM) of 67.8%. The viability, T/C (second compound 3.16 µM, first compound 1 µM) was 35.1%, the viability, T/C (second compound 3.16 µM, first compound 3.16 µM) was 29.2% and the viability, T/C (second compound 3.16 µM, first compound 10 µM) was 11.6%. The viability, T/C (second compound 10 µM, first compound 0.0316 µM) was 77.2%, the viability, T/C (second compound 10 µM, first compound 0.1 µM) was 69.1% and the viability, T/C (second compound 10 µM, first compound 0.316 µM) was 54.9%. It also gave a viability, T/C (second compound 10 µM, first compound 1 µM) of 34.2%, a viability, T/C (second compound 10 µM, first compound 3.16 µM) of 20.6% and a viability, T/C (second compound 10 µM, first compound 10 µM) of 7.91%.
